We go through three compounds from US20250188123A1, “PROTEASE INHIBITORS” (Regents of the University of Minnesota, priority 2022, published 2025).

The experiment has as its system primary hippocampal neurons overexpressing P301S tau (Tau−/+) and littermate controls (Tau−/−). The experiment in a line: mEPSC recording in primary hippocampal neurons from PS19 transgenic mice expressing P301S tau. It is filed as cell-based, mouse. The settings on record: 10 μM; for average amplitude of mEPSC responses in Tau−/+ versus Tau−/− neurons: 3 days in culture media; for cumulative curve of mEPSC amplitudes, Tau−/+ compared with Tau−/−: Mann-Whitney U test. On the procedure:
For these studies, PS19 transgenic mice expressing P301S mutant tau, one of the most used models of FTDP-17 were used (Feinstein S. Faculty Opinions recommendation of Synapse loss and microglial activation precede tangles in a P301S tauopathy mouse model. Faculty Opinions—Post-Publication Peer Review of the Biomedical Literature. 2007; and Takeuchi H, et al., PLoS One., 2011, 6, e21050). To detect functional deficits, primary hippocampal neurons were cultured from heterozygous transgenic mice overexpressing P301S tau (Feinstein S. Faculty Opinions recommendation of Synapse loss and microglial activation precede tangles in a P301S tauopathy mouse model. Faculty Opinions—Post-Publication Peer Review of the Biomedical Literature. 2007; and Takeuchi H, et al., PLoS One., 2011, 6, e21050) and littermate controls, (denoted Tau−/+ and Tau−/− respectively in FIG. 3), and recorded miniature excitatory synaptic currents (mEPSCs).
Briefly, a 22 mm diameter glass coverslip (0.09 mm thickness) was silicone-sealant-fastened to the bottom of a 35 mm culture dish with a bored hole of 20 mm in diameter and sterilized as described by Smith B R, et al., Acta Neuropathologica Communications, 2019, 7(1), 124. Coverslips were coated with poly-D-lysine. Hippocampi were dissected from neonatal Sprague-Dawley timed-pregnancy rats (Envigo) or appropriate transgenic mice and control littermates (see main text) at post-natal day 0-1. Hippocampi were enzymatically digested in Earle's Balanced Salt Solution (EBSS) supplemented with 1% glucose and cysteine-activated papain. Digestion was blocked with dilute BSA (bovine serum albumin) and chicken ovomucoid, and cells were rinsed in fresh EBSS and plated in plating medium (minimal essential medium with Earle's salts, 10% fetal bovine serum, 5% horse serum, 2 mM glutamine, 10 mM sodium pyruvate, 0.6% glucose, 100 U/ml penicillin and […] streptomycin) at 1.0×10^6 cells/dish. After 18 h cell adherence was established. Cells were then grown in a neurobasal medium (a 1:5 mixture of NbActiv4 to NbActiv1; BrainBits LLC) and incubated at 37° C. in a 5% CO2 biological incubator.
Miniature excitatory postsynaptic currents (mEPSCs) were recorded from cultured dissociated mouse hippocampal neurons at 17-21 DIV with a glass pipette (resistance ˜5 MΩ) at holding potentials of −65 mV on an Axopatch 200B amplifier (output gain=0.5; filtered at 1 kHz) as we previously described (Miller E C, et al., Eur J Neurosci., 2014, 39, 214-224). Input and series resistances were assessed and found to have no significant difference before and after recording time (5-20 mins). Recording sweeps lasted 200 ms and were sampled for every 1 s (pClamp, v10, RRID: SCR_011323). Neurons were bathed in bubble-oxygenated artificial cerebrospinal fluid (ACSF) at 23° C. with 100 μM APV (NMDA receptor antagonist), 1 μM TTX (sodium channel blocker), and 100 μM picrotoxin (GABAa receptor antagonist). Passive oxygen perfusion was established with medical-grade 95% O2-5% CO2. ACSF contained (in mM) 119 NaCl, 2.5 KCl, 5.0 CaCl2), 2.5 MgCl2, 26.2 NaHCO3, 1 NaH2PO4, and 11 D-glucose. The internal solution of the glass pipettes contained (in mM) 100 cesium gluconate, 0.2 EGTA, 0.5 MgCl2, 2 ATP, 0.3 GTP, and 40 HEPES. The pH of the internal solution was normalized to 7.2 with cesium hydroxide and diluted to a trace osmotic deficit in comparison to ACSF (˜300 mOsm). All analysis of recordings was performed using an automated detection software suit (Clampfit, 11.0.3, Molecular Devices, San Jose, CA, USA). Minimum analysis parameters were set at greater than 1 min stable recording time and events with amplitudes greater than 3 pA and smaller than 40 pA were included. A mEPSC event was identified by using a template which included a distinct fast-rising depolarization and slow-decaying repolarization. […]

For the compound `CC(=O)N[C@H](C(=O)NC(CC(=O)O)C(=O)N[C@H](C(=O)N1CCc2cc(C)ccc2C1C(=O)N[C@H](C=O)CC(=O)O)C(C)C)C(C)C` (stereo in doubt) [Compound 30a, (R)-3-((S)-2-acetamido-3-methylbutanamido)-4-(((S)-1-((S)-1-(((S)-1-carboxy-3-oxopropan-2-yl)carbamoyl)-6-methyl-3,4-dihydroisoquinolin-2(1H)-yl)-3-methyl-1-oxobutan-2-yl)amino)-4-oxobutanoic acid, reference compound], the “average amplitude of mEPSC responses in Tau−/+ versus Tau−/− neurons” value is “significantly smaller”. Besides, for the setting “3 days”, the “cumulative curve of mEPSC amplitudes, Tau−/+ compared with Tau−/−” value (from here on “cumulative curve … compared with Tau−/−”) was “shifted to the left”.

As to `Cc1ccc2c(c1)CCN(C(=O)[C@@H](NC(=O)[C@H](CCCC(=O)O)NC(=O)C1Cc3ccccc3N1)C(C)C)[C@@H]2C(=O)N[C@H](C#N)CC(=O)O` (stereo partly drawn) [Compound 1, (8)-6-(((S)-1-((8)-1-(((S)-2-carboxy-1-cyanoethyl)carbamoyl)-6-methyl-3,4-dihydroisoquinolin-2(1H)-yl)-3-methyl-1-oxobutan-2-yl)amino)-5-((S)-indoline-2-carboxamido)-6-oxohexanoic acid], the “average amplitude of mEPSC responses in Tau−/+ versus Tau−/− neurons” value is on record as “do not differ significantly”. In addition, where the note is “3 days”, the “average amplitudes of mEPSC responses of Tau−/+ neurons versus those treated with Compound 30a or 30b” value was “significantly larger” and the “cumulative curve … compared with Tau−/−” value is on record as “not significantly shifted”.

Take `CC(=O)N[C@H](C(=O)N[C@@H](CC(=O)O)C(=O)N[C@H](C(=O)N1CCc2cc(C)ccc2[C@H]1C(=O)N[C@H](C=O)CC(=O)O)C(C)C)C(C)C` [Compound 30b, (S)-3-((S)-2-acetamido-3-methylbutanamido)-4-(((S)-1-((S)-1-(((S)-1-carboxy-3-oxopropan-2-yl)carbamoyl)-6-methyl-3,4-dihydroisoquinolin-2(1H)-yl)-3-methyl-1-oxobutan-2-yl)amino)-4-oxobutanoic acid, reference compound]: the “cumulative curve … compared with Tau−/−” value (3 days) is reported as “shifted to the left but less markedly”.
